Data: patent US6355658B1, “Coumarin derivatives, methods of preparation and application as medicines” (Centre National de la Recherche Scientifique, priority 1997, dated 2002)

System: not given
Experiment: not given
Settings: not given

Row | melting point [°C] | Structure (SMILES)
1 | 194 to 195 | O=C(Sc1cccc(Cl)c1)c1cc2cc(CCl)ccc2oc1=O [III2, S-(3-chlorophenyl) 6-chloromethyl-2-oxo-2H-1-benzopyran-3-carbothioate]
2 | 215 to 217 | Cc1ccc2oc(=O)c(C(=O)Oc3cncc(Cl)c3)cc2c1 [Ib2, 5-chloro-3-pyridyl 6-methyl-2-oxo-2H-1-benzopyran-3-carboxylate]
3 | 125 to 129 | O=C(Oc1ccccn1)c1cc2cc(CCl)ccc2oc1=O [Ic′″9, 2-pyridyl 6-chloromethyl-2-oxo-2H-1-benzopyran-3-carboxylate]

Target: T1, bovine trypsin (Bos taurus, UniProt P00760)
T1 sequence (P00760 24-246): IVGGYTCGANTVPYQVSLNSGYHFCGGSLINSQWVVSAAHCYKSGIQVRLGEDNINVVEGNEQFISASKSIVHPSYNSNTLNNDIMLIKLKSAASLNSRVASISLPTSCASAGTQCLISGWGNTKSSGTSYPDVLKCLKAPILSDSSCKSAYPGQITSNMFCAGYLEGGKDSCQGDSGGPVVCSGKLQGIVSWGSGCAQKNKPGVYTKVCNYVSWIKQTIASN
Experiment: Inactivation kinetics of bovine trypsin (chromogenic substrate N-benzoyl-Arg-pNA)
Type: biochemical
Settings: TABLE 1, 2-pyridyl esters; 25° C., pH 7.5; N.I. = non-inactivator
Description: (§1) The inactivating or inhibitory properties of the coumarin derivatives were tested with respect to a certain number of enzymes: human leukocyte elastase, bovine α-chymotrypsin, human thrombin and bovine trypsin. The kinetic measurements were taken at 25° C. in the following buffers: 0.1 M Hepes, 0.5 M NaCl, 0.01% Tween 80, pH 8.0 (human leukocyte elastase); 0.025 M NaH2PO4, 0.05 M KCl, pH 7.5 (α-chymotrypsin); 0.01 M Tris, 0.01 M Hepes, 0.1 M NaCl, 0.1% PEG-6000, pH 7.5 (human thrombin); 0.1 M Tris, 0.01 M CaCl2, pH 7.5 (bovine trypsin). The chromogenic substrates used to determine the activity of the enzymes are: MeOSuc-Ala2-Pro-Val-pNA (human leukocyte elastase); Suc-Ala2-Pro-Phe-pNA (α-chymotrypsin); H-D-Phe-Pip-Arg-pNA (human thrombin); N-benzoyl-Arg-pNA (bovine trypsin) (pNA: para-nitroaniline).
(§2) The interaction of a suicide substrate with a serine protease corresponds to the minimum reaction scheme described in equation 1 in which E represents the enzyme, I represents the inhibitor, E-I represents the acyl-enzyme and E-I′ represents the inactivated enzyme [Silverman R. B., 1988, “Mechanism-based enzyme inactivation: chemistry and enzymology”, volume 1 CRC Press, Boca Raton, Fla.]: [drawing 76]
(§3) When k4 is small compared to k3, equation 1 can be simplified (equation 2, [Daniels et al., 1983, J. Biol. Chem., 258: 15046-15053]): [drawing 77]
(§4) Considering the first instants of the reaction, the system reduces to a simplified equation of the form of equation 2.
(§5) The kinetic constants characterizing the inactivation of the enzymes with the coumarin derivatives were determined using either the conventional sampling method (or batchwise method) or a method placing the inhibitor and the substrate in competition (or continuous method); these methods are described by Pochet et al. [Pochet et al., 1996, J. Med. Chem., 39: 2579-2585].
(§6) The inactivation of serine proteaaes with the coumarin derivatives is thus characterized by the following constants (see Eq. 2):
(§7) KI: apparent dissociation constant of an enzyme-inhibitor complex located upstream of ki
(§8) ki: first-order rate constant for inactivation at infinite inhibitor concentration
(§9) ki/KI: index of the overall inactivating efficacy of the inhibitor.

Row | Ki/KI or kobs/[I], Trypsin | Structure (SMILES)
4 | N.I.^a — — N.I. N.I. | O=C(Oc1ccccn1)c1cc2cc(CCl)ccc2oc1=O [Ic′″9, 2-pyridyl 6-chloromethyl-2-oxo-2H-1-benzopyran-3-carboxylate]

Same assay, conditions: TABLE 1; 25° C., pH 7.5; N.I. = non-inactivator

Row | Ki/KI or kobs/[I], Trypsin | Structure (SMILES)
5 | N.I.^a — — N.I. N.I. | O=C(Oc1ccccn1)c1cc2cc(CCl)ccc2oc1=O [Ic′″9, 2-pyridyl 6-chloromethyl-2-oxo-2H-1-benzopyran-3-carboxylate]

Same assay, conditions: TABLE 3; 25° C., pH 7.5; N.I. = non-inactivator

Row | Ki/KI or kobs/[I], Trypsin | Structure (SMILES)
6 | N.I. N.I. N.I. N.I. N.I. N.I. N.I. — — | Cc1ccc2oc(=O)c(C(=O)Oc3cncc(Cl)c3)cc2c1 [Ib2, 5-chloro-3-pyridyl 6-methyl-2-oxo-2H-1-benzopyran-3-carboxylate]

Same assay, conditions: second table headed TABLE 3; 25° C., pH 7.5; N.I. = non-inactivator

Row | Ki/KI or kobs/[I], Trypsin | Structure (SMILES)
7 | N.I. N.I. N.I. N.I. N.I. N.I. N.I. — — | Cc1ccc2oc(=O)c(C(=O)Oc3cncc(Cl)c3)cc2c1 [Ib2, 5-chloro-3-pyridyl 6-methyl-2-oxo-2H-1-benzopyran-3-carboxylate]

Target: T2, bovine α-chymotrypsin (Bos taurus, UniProt P00766)
T2 construct: bovine α-chymotrypsin
Experiment: Inactivation kinetics of bovine α-chymotrypsin (chromogenic substrate Suc-Ala2-Pro-Phe-pNA)
Type: biochemical
Settings: TABLE 1, 2-pyridyl esters; 25° C., pH 7.5; N.I. = non-inactivator; read-out: Ki/KI or kobs/[I], α-CT
Description: as §1, §2, §3, §4, §5, §6, §7, §8, §9

Row | kinact/KI [M⁻¹ s⁻¹] | Structure (SMILES)
8 | 1670 | O=C(Oc1ccccn1)c1cc2cc(CCl)ccc2oc1=O [Ic′″9, 2-pyridyl 6-chloromethyl-2-oxo-2H-1-benzopyran-3-carboxylate]

Same assay, conditions: TABLE 3, no chloromethyl in position 6; 25° C., pH 7.5; N.I. = non-inactivator

Row | Structure (SMILES) | Ki/KI or kobs/[I], α-CT
9 | Cc1ccc2oc(=O)c(C(=O)Oc3cncc(Cl)c3)cc2c1 [Ib2, 5-chloro-3-pyridyl 6-methyl-2-oxo-2H-1-benzopyran-3-carboxylate] | N.I.^a N.I. N.I. N.I. N.I. N.I. N.I. N.I.

Same assay, conditions: TABLE 5, phenyl esters; 25° C., pH 7.5; without 6-chloromethyl: inactivation phase of transient inactivation; N.I. = non-inactivator; read-out: Ki/KI or kobs/[I], α-CT

Row | kinact/KI [M⁻¹ s⁻¹] | Structure (SMILES)
10 | 730000 | O=C(Sc1cccc(Cl)c1)c1cc2cc(CCl)ccc2oc1=O [III2, S-(3-chlorophenyl) 6-chloromethyl-2-oxo-2H-1-benzopyran-3-carbothioate]

Same assay, conditions: second table headed TABLE 3; 25° C., pH 7.5; N.I. = non-inactivator

Row | Structure (SMILES) | Ki/KI or kobs/[I], α-CT
11 | Cc1ccc2oc(=O)c(C(=O)Oc3cncc(Cl)c3)cc2c1 [Ib2, 5-chloro-3-pyridyl 6-methyl-2-oxo-2H-1-benzopyran-3-carboxylate] | N.I.^a N.I. N.I. N.I. N.I. N.I. N.I. N.I.

Target: T3, human leukocyte elastase (Homo sapiens, UniProt P08246)
T3 sequence (P08246 30-247 limits assumed): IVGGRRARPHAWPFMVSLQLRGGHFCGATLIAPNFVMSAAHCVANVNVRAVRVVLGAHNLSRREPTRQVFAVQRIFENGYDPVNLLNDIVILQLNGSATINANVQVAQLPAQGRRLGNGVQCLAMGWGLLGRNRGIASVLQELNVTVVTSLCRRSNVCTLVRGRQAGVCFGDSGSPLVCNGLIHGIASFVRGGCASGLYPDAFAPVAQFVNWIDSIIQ
Experiment: Inactivation kinetics of human leukocyte elastase (chromogenic substrate MeOSuc-Ala2-Pro-Val-pNA)
Type: biochemical
Settings: TABLE 1, 2-pyridyl esters; 25° C., pH 8.0; inactivation phase of transient inactivation; read-out: Ki/KI or kobs/[I], LHE
Description: as §1, §2, §3, §4, §5, §6, §7, §8, §9

Row | kinact/KI [M⁻¹ s⁻¹] | Structure (SMILES)
12 | 420 | O=C(Oc1ccccn1)c1cc2cc(CCl)ccc2oc1=O [Ic′″9, 2-pyridyl 6-chloromethyl-2-oxo-2H-1-benzopyran-3-carboxylate]

Same assay, conditions: TABLE 1; 25° C., pH 8.0; inactivation phase

Row | Ki/KI or kobs/[I], LHE [M⁻¹ s⁻¹] | Structure (SMILES)
13 | 420 | O=C(Oc1ccccn1)c1cc2cc(CCl)ccc2oc1=O [Ic′″9, 2-pyridyl 6-chloromethyl-2-oxo-2H-1-benzopyran-3-carboxylate]

Same assay, conditions: TABLE 3, no chloromethyl in position 6; 25° C., pH 8.0; inactivation phase of transient inactivation; read-out: Ki/KI or kobs/[I], LHE

Row | kinact/KI [M⁻¹ s⁻¹] | Structure (SMILES)
14 | 32500 | Cc1ccc2oc(=O)c(C(=O)Oc3cncc(Cl)c3)cc2c1 [Ib2, 5-chloro-3-pyridyl 6-methyl-2-oxo-2H-1-benzopyran-3-carboxylate]

Same assay, conditions: TABLE 3; 25° C., pH 8.0; inactivation phase

Row | Ki/KI or kobs/[I], LHE [M⁻¹ s⁻¹] | Structure (SMILES)
15 | 32500 | Cc1ccc2oc(=O)c(C(=O)Oc3cncc(Cl)c3)cc2c1 [Ib2, 5-chloro-3-pyridyl 6-methyl-2-oxo-2H-1-benzopyran-3-carboxylate]

Same assay, conditions: TABLE 5, phenyl esters; 25° C., pH 8.0; inactivation phase; N.I. = non-inactivator; read-out: Ki/KI or kobs/[I], HLE

Row | kinact/KI [M⁻¹ s⁻¹] | Structure (SMILES)
16 | < 200 | O=C(Sc1cccc(Cl)c1)c1cc2cc(CCl)ccc2oc1=O [III2, S-(3-chlorophenyl) 6-chloromethyl-2-oxo-2H-1-benzopyran-3-carbothioate]

Same assay, conditions: compound 750 nM, HLE 100 nM

Row | half-reactivation time for the enzyme [min] | time during which the inhibition remains at 90% [min] | Structure (SMILES)
17 | 35 | 80 | Cc1ccc2oc(=O)c(C(=O)Oc3cncc(Cl)c3)cc2c1 [Ib2, 5-chloro-3-pyridyl 6-methyl-2-oxo-2H-1-benzopyran-3-carboxylate]

Same assay, conditions: compound 750 nM, HLE 100 nM; reached in less than one minute

Row | inhibition at 0.75 µM [%] | Structure (SMILES)
18 | 90 | Cc1ccc2oc(=O)c(C(=O)Oc3cncc(Cl)c3)cc2c1 [Ib2, 5-chloro-3-pyridyl 6-methyl-2-oxo-2H-1-benzopyran-3-carboxylate]

Target: T4, human thrombin (Homo sapiens, UniProt P00734)
T4 construct: human thrombin
Experiment: Inactivation kinetics of human thrombin (chromogenic substrate H-D-Phe-Pip-Arg-pNA)
Type: biochemical
Settings: TABLE 1, 2-pyridyl esters; 25° C., pH 7.5; inactivation phase; N.I. = non-inactivator; read-out: Ki/KI or kobs/[I], Thrombin
Description: as §1, §2, §3, §4, §5, §6, §7, §8, §9

Row | kinact/KI [M⁻¹ s⁻¹] | Structure (SMILES)
19 | ~240 | O=C(Oc1ccccn1)c1cc2cc(CCl)ccc2oc1=O [Ic′″9, 2-pyridyl 6-chloromethyl-2-oxo-2H-1-benzopyran-3-carboxylate]

Same assay, conditions: TABLE 1; 25° C., pH 7.5; inactivation phase; N.I. = non-inactivator

Row | Ki/KI or kobs/[I], Thrombin [M⁻¹ s⁻¹] | Structure (SMILES)
20 | ~240 | O=C(Oc1ccccn1)c1cc2cc(CCl)ccc2oc1=O [Ic′″9, 2-pyridyl 6-chloromethyl-2-oxo-2H-1-benzopyran-3-carboxylate]

Same assay, conditions: TABLE 3; 25° C., pH 7.5; N.I. = non-inactivator

Row | Structure (SMILES) | Ki/KI or kobs/[I], Thrombin
21 | Cc1ccc2oc(=O)c(C(=O)Oc3cncc(Cl)c3)cc2c1 [Ib2, 5-chloro-3-pyridyl 6-methyl-2-oxo-2H-1-benzopyran-3-carboxylate] | N.I. N.I. N.I. N.I. N.I. N.I. N.I. N.I. —

Same assay, conditions: TABLE 5, phenyl esters; 25° C., pH 7.5; inactivation phase; N.I. = non-inactivator

Row | Ki/KI or kobs/[I], Thrombin | Structure (SMILES)
22 | — N.I. | O=C(Sc1cccc(Cl)c1)c1cc2cc(CCl)ccc2oc1=O [III2, S-(3-chlorophenyl) 6-chloromethyl-2-oxo-2H-1-benzopyran-3-carbothioate]

Same assay, conditions: second table headed TABLE 3; 25° C., pH 7.5; N.I. = non-inactivator

Row | Structure (SMILES) | Ki/KI or kobs/[I], Thrombin
23 | Cc1ccc2oc(=O)c(C(=O)Oc3cncc(Cl)c3)cc2c1 [Ib2, 5-chloro-3-pyridyl 6-methyl-2-oxo-2H-1-benzopyran-3-carboxylate] | N.I. N.I. N.I. N.I. N.I. N.I. N.I. N.I. —
